Measured values published in US10434097B1, “Methods and compositions for treating hearing disorders” (GATEWAY BIOTECHNOLOGY, INC., priority 2015, dated 2019).

Assays:
CBA/CaJ mice [1] = assay: Accelerating rotarod, chronic TET use (Example 1); type: in vivo; conditions: 120 mg/kg i.p. for five days, two-month old mice, two-way ANOVA p>0.05
Procedure: CBA/CaJ mice were purchased from The Jackson Laboratory. One to five mice were housed per cage with food and water available in a noise-controlled environment on a 12-hr light/dark cycle with light onset at 6:00 a.m. TET was obtained from Sigma Chemical Co. (St. Louis, Mo.). The drug solution was injected (i.p.) for the treated groups. Control mice were given saline injection only. The amount of water/food intake was monitored daily and body weight was monitored weekly. Drug neurotoxic effects on sensory motor coordination were assessed on two-month old CBA/CaJ mice using the accelerating rotarod method. Mice were trained on the task for 5 days in order to achieve stable performance before either being treated by intraperitoneal (i.p.) injections with TET at 120 mg/kg body weight (n=5) or saline (n=6).

CBA/CaJ mice [2] = assay: Early noise-induced accelerated ARHL model, ABR thresholds (Example 2); type: in vivo; conditions: three months after noise exposure (4-25 kHz, 110 dB SPL, 30 min); TET three days before and two days after exposure
Procedure: Currently, no FDA-approved medications against ARHL are available. Two-month old CBA/CaJ mice were exposed to octave band (4-25 kHz) noise at 110 dB SPL for 30 minutes. This is a well-established noise model for our drug screenings since the noise exposure leads to dramatic acute and permanent hearing threshold shifts 24 hours and two weeks post-exposure respectively. In addition, apparently accelerated age-related increase in the auditory brainstem response (ABR) thresholds were observed three months after the noise exposure in the control group (n=6), up to approximately 50 dB at 40 kHz. Mice treated with TET (n=5) three days before and two days after the noise exposure had only about an increase of 10 dB at 40 kHz three months after exposure (FIG. 2). […] Thus, TET treatment at a young age could prevent accelerated age-related hearing loss due to early noise exposure.

CBA/CaJ mice [3] = assay: Accelerating rotarod test, motor coordination after single injection (Example 3); type: in vivo; conditions: 1 and 3 h after injection
Procedure: FIG. 3 illustrates the effects of TET on mouse rotarod performance test. CBA/CaJ mice were tested before TET treatment (baseline) and one and three hours (1 h, 3 h) after TET treatment (i.p.). The latency to fall were shown as mean+/−S.E.M.
TET effects on motor coordination were evaluated on the accelerating rotarod test. the rotating speed was increased with an acceleration rate of 10 rpm/min. The length of time that each animal was able to stay on the rod was recorded as the latency to fall. TET was dissolved in 0.1 N HCl at a concentration of 50 mg/ml, and the pH was adjusted to 6.8-7.0 before diluted in saline. Mice were injected intraperitoneally (i.p.) with saline (baseline) or different TET dosages. Rotarod performance was evaluated at 1 and 3 h after injection (FIG. 3). […] No significant gender effect was detected at either time point (p>0.1).

CBA/CaJ mice [4] = assay: Prepulse inhibition (PPI), sensory gating (Example 4); type: in vivo
Procedure: TET effects on sensory gating were evaluated using a prepulse inhibition (PPI) procedure. Mice were placed in a plastic restrainer situated on a plate with a pressure sensor. Any animal motion was detected by the sensor which measured its amplitude. TET at various dosages was injected (i. p.) 1 h before the test. For this study, CBA/CaJ mice were divided into four groups: control with saline injection only (n=6; 2 males), TET at 30 mg/kg (n=6; 3 males), 60 mg/kg (n=10; 5 males) and 120 mg/kg (n=6; 2 males). For all groups, the ratio between the PPI and startle amplitude was measured (FIG. 4). […] Thus, TET at 120 mg/kg has no toxic effects on sensory gating in the CBA/CaJ mouse.

C57BL/6J mice = assay: Rodent avoidance (shuttle box) test, memory (Example 5); type: in vivo
Procedure: FIG. 5 illustrates the effects of TET on mouse avoidance test. C57BL/6J mice were trained to move in the shuttle box when a sound was present. After 10 days of training, the latency of their avoidance test was recored and compared between the control (0) and drug-treated groups. Data are shown as means+/−S.E.M.
TET effects on memory were evaluated in mice with a rodent avoidance system, which consisted of two compartments of equal size (12.5 cm×20 cm×20 cm) that were connected by a door. Infrared LEDs were used to monitor rodent movement in each compartment. Sound cues were delivered via piezo tweeters in the ceiling of the compartments. Animals were trained to move from one compartment to the other upon presentation of the sound. […] The trials and responses were collected. Behavioral responses of mice with or without TET injection were measured after injection (FIG. 5). […] Again, one time administration of TET at 120 mg/kg had no significant toxic effects on memory in mice.

CBA/CaJ mice [5] = assay: NIHL, white noise 110 dB SPL 30 min, ABR TTS, repeated TET (Example 6); type: in vivo; conditions: 120 mg/kg two days before and three days after noise
Description: The average TTS across all test frequencies was 69.7 dB for the control group, 62.9 dB for the TET-treated group (about 6.8 dB of protection).

mice [6] = assay: Salicylate-induced tinnitus model, SBAD Go/No-Go (Example 12); type: in vivo; conditions: before or after drug injections, at these dosages
Description: The SBAD method with Go/No-Go paradigm was used for behavioral test in mice. For “Go” trial animals were trained to move from one compartment to another upon presentation of a sound. For “No-Go” trial animals were trained to stay in the compartment. Otherwise they received a shock. “Go” paradigm was used to monitor motor, motivation, and memory functions while “No-Go” was used to detect tinnitus-like behavior. A baseline was established for each mouse over three consecutive days. The same SBAD method was repeated one hour after intraperitoneal injections of sodium salicylate (400 mg/kg), and two hours after TET injections.

mice [7] = assay: Noise-induced tinnitus model, SBAD Go/No-Go (Example 12); type: in vivo
Description: The SBAD method with Go/No-Go paradigm was used for behavioral test in mice. For “Go” trial animals were trained to move from one compartment to another upon presentation of a sound. For “No-Go” trial animals were trained to stay in the compartment. Otherwise they received a shock. “Go” paradigm was used to monitor motor, motivation, and memory functions while “No-Go” was used to detect tinnitus-like behavior. One ear was exposed to a 120 dB noise (4-25 kHz) for two hours for this noise-induced tinnitus model. DPOAE and ABR were measured to monitor possible hearing loss in each ear 2 weeks after noise exposure. SBAD measurements were made 2, 4, and 8 weeks after noise exposure, and also after TET (0, 30, 60, 90 mg/kg) injection.

[8] = higher dosages; abdominal distension, diarrhea, dry eye, itching, hyperpigmentation, mildly elevated liver enzymes; resolve after discontinuance; cited from earlier work
[9] = rats, cited from earlier work
[10] = single oral administration 50 mg/kg

## COc1ccc2cc1Oc1ccc(cc1)C[C@H]1c3cc(c(OC)cc3CCN1C)Oc1c(OC)c(OC)cc3c1[C@H](C2)N(C)CC3 [TET, tetrandrine]
CBA/CaJ mice [1]
  rotarod latency to fall vs control: not significantly different
CBA/CaJ mice [2]
  increase of ABR threshold at 40 kHz: ~10 dB
CBA/CaJ mice [3]; 60 mg/kg i.p.
  rotarod performance (latency to fall) vs baseline: no significant side effects
CBA/CaJ mice [3]; 120 mg/kg i.p.
  rotarod performance (latency to fall) vs baseline: no significant side effects
CBA/CaJ mice [4]; 30 mg/kg i.p. 1 h before test
  ratio between PPI and startle amplitude, pre- vs post-treatment: No significant differences
CBA/CaJ mice [4]; 60 mg/kg i.p. 1 h before test
  ratio between PPI and startle amplitude, pre- vs post-treatment: No significant differences
CBA/CaJ mice [4]; 120 mg/kg i.p. 1 h before test
  ratio between PPI and startle amplitude, pre- vs post-treatment: No significant differences
C57BL/6J mice; 60 mg/kg
  avoidance test latency to cross vs control: No significant difference
C57BL/6J mice; 120 mg/kg
  avoidance test latency to cross vs control: No significant difference
C57BL/6J mice; 180 mg/kg, one-tailed t-test p<0.05
  avoidance test latency to cross vs control: significant increase
CBA/CaJ mice [5]
  protection (TTS difference to control): about 6.8 dB
CBA/CaJ mice [5]; 24 hours after exposure, four month-old mice (control 69.7 dB)
  average TTS across all test frequencies: 62.9 dB
Mice [6]
  "Go" testing (motor, motivation, memory functions): No significant changes
Mice [7]
  "Go" trials (motor, motivation, memory functions): No significant changes
[8]
  side effects in patients: limited side effects
[9]; between 12.5 to 25 mg/kg
  drug elimination from plasma: consistent with linear kinetics
[9]; [10]
  area under the curve (AUC): 6279.2 ± 2411.5 ng·h/mL
  half time (T½): 20.6 ± 3.7 h
[9]
  drug concentration-curve model: fits well with a two-compartment open model
